Values quoted from earlier work, collected in patent publication US20150265683A1, “Stable aqueous composition comprising human insulin or an analogue or derivative thereof” (WOCKHARDT LIMITED, priority 2012, published 2015).

Settings: for duration of action: after administration

## Asp^B28 human insulin [insulin aspart]
  onset of action (begins to work) after administration: 5 to 15 min
  duration of action: 3 to 4 h

## Gly(A21)-Arg(B31)-Arg(B32)-human insulin [Insulin glargine]
  onset of action (starts working) after administration: 1 to 2 h

## Insulin detemir
  onset of action (starts working) after administration: 1 to 2 h

## Regular insulin: Short-acting insulin
  onset of action (begins to work) after administration: ≤ 30 min
  duration of action: 5 to 8 h

## Isophane Insulin: Intermediate-acting insulin
  onset of action (starts working) after administration: 1 to 3 h
  duration of action: 16 to 24 h

## Lys^B28 Pro^B29 human insulin [insulin lispro]
  onset of action (begins to work) after administration: 5 to 15 min
  duration of action: 3 to 4 h
